Laboratory results published in patent US8283353B2, “Fused ring compound and use thereof” (Takeda Pharmaceutical Company Limited, priority 2009, dated 2012).

Assays:
human AT1 receptor = target: T1, human AT1 receptor (Homo sapiens, UniProt P30556); test: AT1 receptor antagonistic activity: [125I]-angiotensin II binding assay on human AT1 receptor-expressing CHO-K1 cellular membrane fraction; settings: 22.5 pM [125I]-angiotensin II, 1 hr room temperature
T1 construct: expressed in transfected cells; membrane fraction
T1 sequence (P30556 1-359): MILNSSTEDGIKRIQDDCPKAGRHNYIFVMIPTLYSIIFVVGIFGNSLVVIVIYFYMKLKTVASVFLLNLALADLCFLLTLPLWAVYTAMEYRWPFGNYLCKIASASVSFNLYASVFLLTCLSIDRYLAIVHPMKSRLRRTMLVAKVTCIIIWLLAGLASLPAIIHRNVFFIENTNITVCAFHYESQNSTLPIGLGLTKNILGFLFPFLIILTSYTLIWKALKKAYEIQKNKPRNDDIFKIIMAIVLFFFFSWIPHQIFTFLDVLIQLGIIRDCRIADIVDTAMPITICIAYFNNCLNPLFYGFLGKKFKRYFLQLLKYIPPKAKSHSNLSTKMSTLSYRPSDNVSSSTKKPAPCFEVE
Outline: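 Competition binding used radiolabelled angiotensin II on stably transfected CHO-K1 membrane fractions in Tris pH 7.4/MgCl2 buffer, optionally containing 0.3 mg/mL fatty acid-free BSA, 1 hr at room temperature. Filtration onto GF/C separated bound tracer, and nonspecific binding was measured with candesartan.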

human PPARγ = target: T2, human PPARγ (Homo sapiens, UniProt P37231); test: PPARγ agonistic activity: luciferase reporter assay in PPARγ:RXRα:4ERPP/CHO-K1 cells; type: cell-based; settings: CHO-K1, test compound 10^−6 M; luciferase activity of control compound X (1 μM) = 100%, non-administration group = 0%
T2 construct: expressed in transfected cells
T2 sequence (P37231 1-477 isoform P37231-2): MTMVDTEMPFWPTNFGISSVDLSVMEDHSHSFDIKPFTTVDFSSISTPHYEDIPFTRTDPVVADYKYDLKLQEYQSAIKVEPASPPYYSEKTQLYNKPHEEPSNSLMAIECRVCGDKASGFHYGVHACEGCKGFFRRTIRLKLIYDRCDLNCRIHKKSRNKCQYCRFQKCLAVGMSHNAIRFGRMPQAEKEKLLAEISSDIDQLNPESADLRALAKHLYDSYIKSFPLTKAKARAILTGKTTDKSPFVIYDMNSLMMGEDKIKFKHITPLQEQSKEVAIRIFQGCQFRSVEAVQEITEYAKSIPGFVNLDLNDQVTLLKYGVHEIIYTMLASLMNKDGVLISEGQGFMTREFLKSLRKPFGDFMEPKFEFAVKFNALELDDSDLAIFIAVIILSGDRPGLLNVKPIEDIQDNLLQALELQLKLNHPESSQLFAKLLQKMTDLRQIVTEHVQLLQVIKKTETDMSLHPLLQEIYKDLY
T2 sequence (P19793 1-462 partner): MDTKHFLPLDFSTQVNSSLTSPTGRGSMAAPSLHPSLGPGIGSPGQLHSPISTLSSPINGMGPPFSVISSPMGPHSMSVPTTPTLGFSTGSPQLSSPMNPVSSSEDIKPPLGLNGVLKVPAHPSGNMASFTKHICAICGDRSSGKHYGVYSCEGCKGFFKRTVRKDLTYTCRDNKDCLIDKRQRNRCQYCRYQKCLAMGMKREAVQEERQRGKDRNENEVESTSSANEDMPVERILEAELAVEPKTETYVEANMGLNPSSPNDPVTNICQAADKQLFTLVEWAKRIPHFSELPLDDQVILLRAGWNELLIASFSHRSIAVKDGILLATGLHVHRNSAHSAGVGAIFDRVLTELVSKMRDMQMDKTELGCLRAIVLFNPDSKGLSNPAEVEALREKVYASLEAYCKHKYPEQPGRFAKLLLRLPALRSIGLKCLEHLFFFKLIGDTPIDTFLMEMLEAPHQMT
Outline: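 Activity is expressed relative to untreated cells (0%) and 1 μM reference compound X (100%), from luciferase luminescence. Reporter line: PPARγ:RXRα:4ERPP/CHO-K1, exposed to compound for one day at 37 °C in F12 medium containing 0.1% fatty-acid-free BSA.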

Row | Compound | IC50 (human AT1 receptor) [nM] | activation at 1 µM (human PPARγ) [%]
1 | CCCc1c(Cc2ccc(-c3ccccc3-c3noc(=O)[nH]3)cc2)c(=O)n(C/C(=N\OCC)C(F)(F)F)c2nc(C)nn12 [Example 107, 4-[(2E)-2-(ethoxyimino)-3,3,3-trifluoropropyl]-2-methyl-6-{[2′-(5-oxo-4,5-dihydro-1,2,4-oxadiazol-3-yl)biphenyl-4-yl]methyl}-7-propyl[1,2,4]triazolo[1,5-a]pyrimidin-5(4H)-one] | 1.9 | 16
2 | CCCc1c(Cc2ccc(-c3ccccc3-c3noc(=O)[nH]3)cc2F)c(=O)n(C2CCOCC2)c2nc(C)nn12 [Example 108, 6-{[3-fluoro-2′-(5-oxo-4,5-dihydro-1,2,4-oxadiazol-3-yl)biphenyl-4-yl]methyl}-2-methyl-7-propyl-4-(tetrahydro-2H-pyran-4-yl)[1,2,4]triazolo[1,5-a]pyrimidin-5(4H)-one] | 1.5 | 16
3 | CCCc1c(Cc2ccc(-c3ccccc3-c3noc(=O)[nH]3)cc2)c(=O)n(C2CCOCC2)c2ncnn12 [Example 109, 6-{[2′-(5-oxo-4,5-dihydro-1,2,4-oxadiazol-3-yl)biphenyl-4-yl]methyl}-7-propyl-4-(tetrahydro-2H-pyran-4-yl)[1,2,4]triazolo[1,5-a]pyrimidin-5(4H)-one] | 2.2 | 16
4 | CCCc1c(Cc2ccc(-c3ccccc3-c3noc(=O)[nH]3)cc2F)c(=O)n(C2CCSCC2)c2nc(C)nn12 [Example 113, 6-{[3-fluoro-2′-(5-oxo-4,5-dihydro-1,2,4-oxadiazol-3-yl)biphenyl-4-yl]methyl}-2-methyl-7-propyl-4-(tetrahydro-2H-thiopyran-4-yl)[1,2,4]triazolo[1,5-a]pyrimidin-5(4H)-one] | 1.5 | 20
5 | CCCc1c(Cc2ccc(-c3ccccc3-c3noc(=O)[nH]3)cc2)c(=O)n(C(C)/C(C)=N/OCC)c2nc(C)nn12 (stereo not drawn) [Example 114, 4-[(2E)-2-(ethoxyimino)-1-methylpropyl]-2-methyl-6-{[2′-(5-oxo-4,5-dihydro-1,2,4-oxadiazol-3-yl)biphenyl-4-yl]methyl}-7-propyl[1,2,4]triazolo[1,5-a]pyrimidin-5(4H)-one] | 2 | 16
6 | CCCc1c(Cc2ccc(-c3ccccc3-c3noc(=O)[nH]3)cc2F)c(=O)n(C2CCOCC2)c2ncnn12 [Example 117, 6-{[3-fluoro-2′-(5-oxo-4,5-dihydro-1,2,4-oxadiazol-3-yl)biphenyl-4-yl]methyl}-7-propyl-4-(tetrahydro-2H-pyran-4-yl)[1,2,4]triazolo[1,5-a]pyrimidin-5(4H)-one] | 1.3 | 18
7 | CCCc1c(Cc2ccc(-c3ccccc3-c3noc(=O)[nH]3)cc2F)c(=O)n(C2CCCOC2)c2ncnn12 (stereo not drawn) [Example 121, 6-{[3-fluoro-2′-(5-oxo-4,5-dihydro-1,2,4-oxadiazol-3-yl)biphenyl-4-yl]methyl}-7-propyl-4-(tetrahydro-2H-pyran-3-yl)[1,2,4]triazolo[1,5-a]pyrimidin-5(4H)-one] | 1.9 | 31
8 | CCCc1c(Cc2ccc(-c3ccccc3-c3noc(=O)[nH]3)cc2)c(=O)n(C2CCCOC2)c2ncnn12 (stereo not drawn) [Example 124, 6-{[2′-(5-oxo-4,5-dihydro-1,2,4-oxadiazol-3-yl)biphenyl-4-yl]methyl}-7-propyl-4-(tetrahydro-2H-pyran-3-yl)[1,2,4]triazolo[1,5-a]pyrimidin-5(4H)-one] | 2.4 | 21
9 | CCCCc1c(Cc2ccc(-c3ccccc3-c3noc(=O)[nH]3)cc2)c(=O)n(C2CCOCC2)c2ncnn12 [Example 125, 7-butyl-6-{[2′-(5-oxo-4,5-dihydro-1,2,4-oxadiazol-3-yl)biphenyl-4-yl]methyl}-4-(tetrahydro-2H-pyran-4-yl)[1,2,4]triazolo[1,5-a]pyrimidin-5(4H)-one] | 1.9 | 23
